Measured values published in patent US8785470B2, “Heterocyclic compounds and uses thereof” (Infinity Pharmaceuticals, Inc., priority 2011, dated 2014).
Read-outs that look alike come from different tables or passages of the source.

Columns and labels:
PI3Kδ = target: T1, PI3Kδ (Homo sapiens, UniProt O00329); experiment: PI3-Kinase HTRF assay, PI3Kδ; type: biochemical; conditions: bins Greater than 10 μM and Greater than 1 μM to 10 μM; 10 μM ATP, PIP2 at 10 μM
T1 construct: purchased Millipore Corporation 14-604-K
T1 sequence (O00329 whole entry): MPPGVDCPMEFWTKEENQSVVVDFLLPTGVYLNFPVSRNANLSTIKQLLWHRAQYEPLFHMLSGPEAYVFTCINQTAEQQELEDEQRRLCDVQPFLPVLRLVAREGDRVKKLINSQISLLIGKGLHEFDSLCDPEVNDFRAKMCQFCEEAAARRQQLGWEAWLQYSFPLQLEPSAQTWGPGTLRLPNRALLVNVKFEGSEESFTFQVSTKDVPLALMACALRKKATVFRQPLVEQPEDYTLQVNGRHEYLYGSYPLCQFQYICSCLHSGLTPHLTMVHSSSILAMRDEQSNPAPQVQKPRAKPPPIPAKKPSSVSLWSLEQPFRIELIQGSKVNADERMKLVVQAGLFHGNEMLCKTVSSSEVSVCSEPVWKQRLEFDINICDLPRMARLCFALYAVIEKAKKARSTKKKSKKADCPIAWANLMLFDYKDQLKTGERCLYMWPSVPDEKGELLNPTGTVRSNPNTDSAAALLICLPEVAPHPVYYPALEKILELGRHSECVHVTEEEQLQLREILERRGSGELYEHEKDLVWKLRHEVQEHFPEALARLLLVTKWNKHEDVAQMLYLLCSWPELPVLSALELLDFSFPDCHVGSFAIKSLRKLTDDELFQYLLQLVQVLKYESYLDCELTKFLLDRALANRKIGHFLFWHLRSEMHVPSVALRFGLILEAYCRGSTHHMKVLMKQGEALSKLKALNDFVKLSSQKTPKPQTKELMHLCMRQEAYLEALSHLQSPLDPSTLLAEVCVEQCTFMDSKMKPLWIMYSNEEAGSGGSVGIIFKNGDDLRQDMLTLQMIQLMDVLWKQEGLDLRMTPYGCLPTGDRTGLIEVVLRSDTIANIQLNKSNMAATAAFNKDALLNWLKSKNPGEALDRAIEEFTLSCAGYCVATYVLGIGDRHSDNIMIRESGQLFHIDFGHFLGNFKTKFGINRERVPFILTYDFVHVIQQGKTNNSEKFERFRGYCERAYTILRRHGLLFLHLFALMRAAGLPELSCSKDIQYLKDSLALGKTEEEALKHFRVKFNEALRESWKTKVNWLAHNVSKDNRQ
T1 sequence (P27986 whole entry partner): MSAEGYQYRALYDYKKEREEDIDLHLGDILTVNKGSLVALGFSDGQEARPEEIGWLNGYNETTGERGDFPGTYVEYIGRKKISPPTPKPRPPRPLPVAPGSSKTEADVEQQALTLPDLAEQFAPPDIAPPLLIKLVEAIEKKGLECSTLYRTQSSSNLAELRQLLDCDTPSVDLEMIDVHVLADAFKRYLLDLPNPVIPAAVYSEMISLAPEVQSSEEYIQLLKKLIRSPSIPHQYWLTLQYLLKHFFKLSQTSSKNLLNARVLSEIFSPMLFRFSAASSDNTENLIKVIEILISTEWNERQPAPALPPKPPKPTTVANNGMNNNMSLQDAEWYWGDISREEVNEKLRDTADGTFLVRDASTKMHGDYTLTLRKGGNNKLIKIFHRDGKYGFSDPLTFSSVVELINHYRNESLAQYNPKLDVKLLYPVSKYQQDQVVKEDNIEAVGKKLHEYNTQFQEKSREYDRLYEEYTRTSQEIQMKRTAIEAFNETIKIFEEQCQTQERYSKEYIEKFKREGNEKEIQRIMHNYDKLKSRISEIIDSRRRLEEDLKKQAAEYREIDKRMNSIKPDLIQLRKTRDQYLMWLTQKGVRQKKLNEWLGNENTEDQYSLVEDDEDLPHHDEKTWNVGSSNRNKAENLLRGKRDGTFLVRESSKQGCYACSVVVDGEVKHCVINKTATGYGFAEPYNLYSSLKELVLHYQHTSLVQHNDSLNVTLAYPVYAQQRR
Source text: A PI3-Kinase HTRF® assay kit (cat No. 33-016) purchased from Millipore Corporation was used to screen compounds provided herein. This assay used specific, high affinity binding of the GRPI pleckstrin homology (PH) domain to PIP3, the product of a Class 1A or 1B PI3 Kinase acting on its physiological substrate PIP2. During the detection phase of the assay, a complex was generated between the GST-tagged PH domain and biotinylated short chain PIP3. The biotinylated PIP3 and the GST-tagged PH domain recruited fluorophores (Streptavidin-Allophycocyanin and Europium-labeled anti-GST respectively) to form the fluorescence resonance energy transfer (FRET) architecture, generating a stable time-resolved FRET signal. The FRET complex was disrupted in a competitive manner by non-biotinylated PIP3, a product formed in the PI3 Kinase assay.
PI3 Kinase α, β, γ and δ activity was assayed using the PI3 Kinase HTRF® assay kit (catalogue No. 33-016) purchased from Millipore Corporation. Purified recombinant PI3Kα (catalogue No. 14-602-K), PI3Kβ (catalogue No. 14-603-K), PI3Kγ (catalogue No. 14-558-K) and PI3Kδ (catalogue No. 14-604-K) were obtained from Millipore Corporation. Purified recombinant PI3K enzyme was used to catalyze the phosphorylation of phosphatidylinositol 4,5-bisphosphate (PIP2 at 10 μM) to phosphatidylinositol 3,4,5-trisphosphate (PIP3) in the presence of 10 μM ATP. The assay was carried out in 384-well format and detected using a Perkin Elmer EnVision Xcite Multilabel Reader. Emission ratios were converted into percent inhibitions and imported into GraphPad Prism software. The concentration necessary to achieve inhibition of enzyme activity by 50% (IC50) was calculated using concentrations ranging from 20 μM to 0.1 nM (12-point curve). IC50 values were determined using a nonlinear regression model available in GraphPad Prism 5. […]

Balb/c splenic B cells = experiment: B cell activation and proliferation assay; type: cell-based; conditions: Mus musculus, Greater than 1 μM to 10 μM, read-out: B cell proliferation EC50
Method in brief: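 Read-out is metabolic activity by Alamar Blue reduction (5 h, 560Ex/590Em) after 72 h at 37° C, reported as IC50 or EC50. Compound (0.2% DMSO) was added 30 min before a cocktail holding 10 μg/ml LPS or 5 μg/ml F(ab′)2 anti-IgM with 2 ng/ml mouse IL4. Cells were purified Balb/c splenic B cells, 50.000 per well.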

PI3Kβ = target: T2, PI3Kβ (Homo sapiens, UniProt P42338); experiment: PI3-Kinase HTRF assay, PI3Kβ; type: biochemical; conditions: bins Greater than 10 μM and Greater than 1 μM to 10 μM; 10 μM ATP, PIP2 at 10 μM
T2 construct: purchased Millipore Corporation 14-603-K
T2 sequence (P42338 whole entry): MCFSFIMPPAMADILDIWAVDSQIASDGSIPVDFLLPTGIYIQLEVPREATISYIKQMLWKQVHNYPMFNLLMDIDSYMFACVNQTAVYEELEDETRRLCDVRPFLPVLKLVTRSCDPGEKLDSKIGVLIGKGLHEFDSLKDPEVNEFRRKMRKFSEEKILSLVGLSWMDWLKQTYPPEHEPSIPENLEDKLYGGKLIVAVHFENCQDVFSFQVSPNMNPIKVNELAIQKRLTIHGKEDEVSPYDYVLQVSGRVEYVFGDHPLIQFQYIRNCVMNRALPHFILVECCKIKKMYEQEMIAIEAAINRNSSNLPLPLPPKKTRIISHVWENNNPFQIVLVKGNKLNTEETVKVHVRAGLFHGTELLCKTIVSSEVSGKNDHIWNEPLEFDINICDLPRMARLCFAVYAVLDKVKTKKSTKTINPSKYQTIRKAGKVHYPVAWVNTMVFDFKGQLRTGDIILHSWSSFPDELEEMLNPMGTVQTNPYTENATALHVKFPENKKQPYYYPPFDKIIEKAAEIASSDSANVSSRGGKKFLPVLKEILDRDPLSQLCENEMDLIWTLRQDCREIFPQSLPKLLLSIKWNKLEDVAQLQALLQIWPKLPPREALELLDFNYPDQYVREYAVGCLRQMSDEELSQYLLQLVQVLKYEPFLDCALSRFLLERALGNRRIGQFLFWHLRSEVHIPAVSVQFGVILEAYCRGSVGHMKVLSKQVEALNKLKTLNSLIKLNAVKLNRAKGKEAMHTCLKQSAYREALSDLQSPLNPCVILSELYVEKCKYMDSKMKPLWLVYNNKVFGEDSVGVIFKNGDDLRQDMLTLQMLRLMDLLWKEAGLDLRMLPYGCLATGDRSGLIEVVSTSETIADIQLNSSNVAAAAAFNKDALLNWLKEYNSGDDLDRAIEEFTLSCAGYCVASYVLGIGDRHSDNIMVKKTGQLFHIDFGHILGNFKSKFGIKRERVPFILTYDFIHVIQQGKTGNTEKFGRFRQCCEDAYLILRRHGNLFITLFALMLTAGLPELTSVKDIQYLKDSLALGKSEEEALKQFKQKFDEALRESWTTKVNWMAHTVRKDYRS
T2 sequence (P27986 whole entry partner): as the sequence (P27986 whole entry partner) above
Method in brief: (§1)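 Competitive time-resolved FRET readout of PIP3 formed from 10 μM PIP2 with 10 μM ATP, 1 h at room temperature, by each recombinant human isoform (α, β, γ, δ; 0.25-0.3 μg/ml). Compound (2% DMSO final) was preincubated 15 min with enzyme and substrate; IC50 fitted over 20 μM–0.1 nM, 12 points.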

[1] = test system: phospho-AKT in RAJI cells (PI3Kδ); experiment: PI3Kδ selective assay, phospho-AKT in RAJI cells; type: cell-based; conditions: RAJI cells stimulated with anti-human IgM; read-out: IC50 for phospho-AKT, RAJI cell model
Source text: A compound's ability in selectively inhibiting PI3Kδ can be assessed using RAJI cells, i.e., B lymphocyte cells derived from lymphoma patients. Briefly, serum-starved RAJI cells are stimulated with anti-human IgM, thereby causing signaling through the B-cell receptors, as described in, for example, He et al., Leukemia Research (2009) 33: 798-802. B-cell receptor signaling is important for the activation, differentiation, and survival of B cells and certain B-cell derived cancers. Reduction of phospho-AKT is indicative of compounds that may inhibit B-cell proliferation and function in certain diseases. By monitoring the reduction of phospho-AKT in stimulated RAJI cells (using for example, phospho-AKT antibodies), a compound's potential efficacy in selectively inhibiting PI3Kδ can be assessed.

[2] = test system: phospho-AKT in RAW 264.7 cells (PI3Kγ); experiment: PI3Kγ selective assay, phospho-AKT in RAW 264.7 cells; type: cell-based; conditions: Mus musculus, RAW264.7, stimulated with C5a, read-out: IC50 for phospho-AKT, RAW 264.7 cell model
Source text: A compound's ability in selectively inhibiting PI3Kγ can be assessed using RAW264.7 macrophages. Briefly, serum-starved PAW264.7 cells are stimulated with a known GPCR agonist C5a. (See, e.g., Camps et al., Nature Medicine (2005) 11(9): 936-943). Cells can be treated with test compounds prior to, simultaneously with, or subsequent to the stimulation by C5a. RAW 264.7 cells respond to the complement component fragment C5a through activation of the C5a receptor, and the C5a receptor activates macrophages and induces cell migration. Test compounds' ability to inhibit C5a-mediated AKT phosphorylation is indicative of selective inhibition of PI3Kγ. Thus, by monitoring the reduction of phospho-AKT in stimulated RAW 264.7 cells (using for example, phospho-AKT antibodies), a compound's potential efficacy in selectively inhibiting PI3Kγ can be assessed.

PI3Kα = target: T3, PI3Kα (Homo sapiens, UniProt P42336); experiment: PI3-Kinase HTRF assay, PI3Kα; type: biochemical; conditions: bins Greater than 10 μM and Greater than 1 μM to 10 μM; 10 μM ATP, PIP2 at 10 μM; read-out: IC50 P13Kα
T3 construct: purchased Millipore Corporation 14-602-K
T3 sequence (P42336 whole entry): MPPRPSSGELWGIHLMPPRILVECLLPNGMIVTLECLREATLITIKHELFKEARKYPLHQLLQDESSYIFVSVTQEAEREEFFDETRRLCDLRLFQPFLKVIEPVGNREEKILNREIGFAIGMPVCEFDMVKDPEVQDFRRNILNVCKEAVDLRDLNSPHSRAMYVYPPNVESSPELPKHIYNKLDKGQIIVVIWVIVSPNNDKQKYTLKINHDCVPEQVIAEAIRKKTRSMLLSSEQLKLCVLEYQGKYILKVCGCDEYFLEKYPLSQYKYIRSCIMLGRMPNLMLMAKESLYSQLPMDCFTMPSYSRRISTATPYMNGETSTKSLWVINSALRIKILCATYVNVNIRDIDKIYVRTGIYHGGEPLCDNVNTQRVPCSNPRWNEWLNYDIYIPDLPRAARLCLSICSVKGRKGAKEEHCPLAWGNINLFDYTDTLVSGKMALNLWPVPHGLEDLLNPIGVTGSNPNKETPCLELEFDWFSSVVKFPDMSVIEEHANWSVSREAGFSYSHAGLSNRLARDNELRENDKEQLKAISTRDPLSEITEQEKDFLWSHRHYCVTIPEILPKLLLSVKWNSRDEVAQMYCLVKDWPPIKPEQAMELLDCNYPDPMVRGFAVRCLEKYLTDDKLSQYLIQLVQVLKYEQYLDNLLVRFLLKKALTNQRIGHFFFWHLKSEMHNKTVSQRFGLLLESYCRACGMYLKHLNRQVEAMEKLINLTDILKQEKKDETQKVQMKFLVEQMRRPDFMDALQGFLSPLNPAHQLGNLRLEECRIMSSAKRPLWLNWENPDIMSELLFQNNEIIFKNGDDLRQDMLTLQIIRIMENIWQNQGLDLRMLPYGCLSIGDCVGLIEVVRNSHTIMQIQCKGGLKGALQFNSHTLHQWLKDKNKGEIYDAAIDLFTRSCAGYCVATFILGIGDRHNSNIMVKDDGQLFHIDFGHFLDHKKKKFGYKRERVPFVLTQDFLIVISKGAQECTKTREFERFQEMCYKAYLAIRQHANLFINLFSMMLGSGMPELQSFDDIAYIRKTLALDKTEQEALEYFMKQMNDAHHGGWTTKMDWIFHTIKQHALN
T3 sequence (P27986 whole entry partner): as the sequence (P27986 whole entry partner) above
Method in brief: as §1

[3] = ranges less than 100 nM and between 100 nM and 1 μM (given as 100-1000)

Row | SMILES | IC50 (PI3Kδ) | EC50 (Balb/c splenic B cells) | IC50 (PI3Kβ) | IC50 [1] | IC50 [2, 3] | IC50 (PI3Kα) | IC50 ([2]; range between 1 μM and 10 μM)
1 | C[C@H](Nc1nc(N)ncc1-c1ccccc1)c1cc2cccc(Cl)c2c(=O)n1-c1ccccc1 [Compound 82, (S)-3-(1-(2-amino-5-phenylpyrimidin-4-ylamino)ethyl)-8-chloro-2-phenylisoquinolin-1(2H)-one] | 1000 to 10000 nM | 1000 to 10000 nM | – | – | – | – | –
2 | C[C@H](Nc1nc(N)ncc1S(C)(=O)=O)c1cc2cccc(Cl)c2c(=O)n1-c1ccccc1 [Compound 85, (S)-3-(1-(2-amino-5-(methylsulfonyl)pyrimidin-4-ylamino)ethyl)-8-chloro-2-phenylisoquinolin-1(2H)-one] | 1000 to 10000 nM | – | – | – | – | – | –
3 | C[C@H](Nc1nc(N)ncc1C#N)c1cc2cccc(Cl)c2c(=O)n1C1CC1 [Compound 104] | 1000 to 10000 nM | – | 1000 to 10000 nM | < 100 nM | 100 to 1000 nM | – | –
4 | COc1cccc2cc([C@H](C)Nc3nc(N)ncc3C#N)n(-c3ccccc3)c(=O)c12 [Compound 148] | 1000 to 10000 nM | – | – | – | – | – | –
5 | COc1cc(-c2cccc3cc([C@H](C)Nc4nc(N)ncc4C(=O)N4CCC4)n(-c4ccccc4)c(=O)c23)ccn1 [Compound 154] | 1000 to 10000 nM | – | – | – | – | – | –
6 | CCN(C)C(=O)c1cnc(N)nc1N[C@@H](C)c1cc2cccc(-c3ccnc(OC)c3)c2c(=O)n1-c1ccccc1 [Compound 155] | 1000 to 10000 nM | – | – | – | – | – | –
7 | C[C@H](Nc1nc(N)ncc1C#N)c1cc2cccc(-c3cncc(NS(C)(=O)=O)c3)c2c(=O)n1-c1ccccc1 [Compound 191] | 1000 to 10000 nM | – | 1000 to 10000 nM | < 100 nM | – | 1000 to 10000 nM | 1000 to 10000 nM
8 | C[C@H](Nc1nc(N)ncc1C#N)c1cc2cccc(Cl)c2c(=O)n1-c1ccc(C#N)cc1 [Compound 220] | 1000 to 10000 nM | – | 1000 to 10000 nM | – | – | – | –
9 | COc1cnc(-c2cccc3cc([C@H](C)Nc4nc(N)ncc4C#N)n(-c4ccccc4)c(=O)c23)nc1 [Compound 228] | 1000 to 10000 nM | – | – | – | – | – | –
10 | N#Cc1cnc(N)nc1NCc1cc2cccc(Cl)c2c(=O)n1-c1ccccc1 [Compound 241] | – | – | 1000 to 10000 nM | < 100 nM | < 100 nM | 1000 to 10000 nM | –
11 | C[C@H](Nc1nc(N)ncc1C#N)c1cc2cccc(Cl)c2c(=O)n1-c1ccc(F)c(F)c1 [Compound 270] | 1000 to 10000 nM | – | 1000 to 10000 nM | < 100 nM | < 100 nM | – | –
12 | C[C@H](Nc1nc(N)ncc1C#N)c1cc2cccc(Cl)c2c(=O)n1-c1c(F)cccc1F [Compound 279] | 1000 to 10000 nM | – | 1000 to 10000 nM | < 100 nM | < 100 nM | – | –
13 | COc1cccc(-n2c([C@H](C)Nc3nc(N)ncc3C#N)cc3cccc(Cl)c3c2=O)c1 [Compound 288] | – | – | 1000 to 10000 nM | < 100 nM | < 100 nM | – | –
14 | COc1cc(-n2c([C@H](C)Nc3nc(N)ncc3C#N)cc3cccc(Cl)c3c2=O)ccc1F [Compound 291] | 1000 to 10000 nM | – | 1000 to 10000 nM | < 100 nM | < 100 nM | – | –
15 | CC(C)n1c([C@H](C)Nc2ncnc(N)c2C#N)cc2cccc(Cl)c2c1=O [Compound 329] | – | – | 1000 to 10000 nM | < 100 nM | 100 to 1000 nM | 1000 to 10000 nM | –
16 | C[C@H](Nc1nc(N)ncc1C#N)c1cc2cccc(-c3ccc(=O)n(C)c3)c2c(=O)n1-c1ccon1 [Compound 338] | 1000 to 10000 nM | – | 1000 to 10000 nM | < 100 nM | – | 1000 to 10000 nM | 1000 to 10000 nM
17 | COc1ncc(-c2cnc(N)nc2N[C@@H](C)c2cc3cccc(Cl)c3c(=O)n2-c2ccccc2)s1 [Compound 382] | – | – | 1000 to 10000 nM | < 100 nM | < 100 nM | – | –
18 | CCOc1nc(-c2cnc(N)nc2N[C@@H](C)c2cc3cccc(-c4cnc(OC)nc4)c3c(=O)n2-c2ccccc2)cs1 [Compound 396] | – | – | 1000 to 10000 nM | < 100 nM | 100 to 1000 nM | 1000 to 10000 nM | –
19 | C[C@H](Nc1nc(N)ncc1-c1cccc(S(C)(=O)=O)c1)c1cc2cccc(Cl)c2c(=O)n1-c1ccccc1 [Compound 397] | – | – | 1000 to 10000 nM | < 100 nM | < 100 nM | 1000 to 10000 nM | –
20 | C[C@H](Nc1nc(N)ncc1-c1cccc(NS(C)(=O)=O)c1)c1cc2cccc(Cl)c2c(=O)n1-c1ccccc1 [Compound 399] | – | – | 1000 to 10000 nM | < 100 nM | < 100 nM | 1000 to 10000 nM | –
21 | C[C@H](Nc1nc(N)ncc1-c1cncc(S(C)(=O)=O)c1)c1cc2cccc(Cl)c2c(=O)n1-c1ccccc1 [Compound 401] | 1000 to 10000 nM | – | 1000 to 10000 nM | < 100 nM | 100 to 1000 nM | 1000 to 10000 nM | –
22 | C[C@H](Nc1nc(N)ncc1-c1ccc(S(C)(=O)=O)nc1)c1cc2cccc(Cl)c2c(=O)n1-c1ccccc1 [Compound 402] | 1000 to 10000 nM | – | 1000 to 10000 nM | < 100 nM | – | – | 1000 to 10000 nM
23 | C[C@H](Nc1nc(N)ncc1-c1cnc(S(C)(=O)=O)s1)c1cc2cccc(Cl)c2c(=O)n1-c1ccccc1 [Compound 403] | – | – | 1000 to 10000 nM | < 100 nM | < 100 nM | – | –
24 | C[C@H](Nc1nc(N)ncc1-c1cccc(N(C)S(C)(=O)=O)c1)c1cc2cccc(Cl)c2c(=O)n1-c1ccccc1 [Compound 408] | – | – | 1000 to 10000 nM | < 100 nM | < 100 nM | 1000 to 10000 nM | –
25 | Cc1ccc(NS(C)(=O)=O)cc1-c1cnc(N)nc1N[C@@H](C)c1cc2cccc(Cl)c2c(=O)n1-c1ccccc1 [Compound 412] | – | – | 1000 to 10000 nM | < 100 nM | < 100 nM | – | –
26 | C[C@H](Nc1nc(N)ncc1-c1cccc(S(=O)(=O)C2CC2)c1)c1cc2cccc(Cl)c2c(=O)n1-c1ccccc1 [Compound 417] | – | – | 1000 to 10000 nM | < 100 nM | < 100 nM | 1000 to 10000 nM | –
27 | C[C@H](Nc1nc(N)ncc1-c1cccc(S(C)(=O)=O)c1)c1cc2cccc(C(F)(F)F)c2c(=O)n1-c1ccccc1 [Compound 428] | – | – | 1000 to 10000 nM | < 100 nM | < 100 nM | 1000 to 10000 nM | –
28 | C[C@H](Nc1cc(Cl)ncc1C#N)c1cc2cccc(Cl)c2c(=O)n1-c1ccccc1 [Compound 429] | 1000 to 10000 nM | – | – | – | – | – | –
29 | C[C@H](Nc1nc(N)ncc1C(=O)N1CCC1)c1cc2cccc(Cl)c2c(=O)n1-c1ccccc1 [Compound 433] | 1000 to 10000 nM | – | – | – | – | – | –
